# Experimental data as given in patent EP2197279B1, “C10-SUBSTITUTED CAMPTOTHECIN ANALOGS” (BIONUMERIK PHARMACEUTICALS, INC., priority 2007, dated 2009).
# Where two headings read alike, the source gives them in different places.
# Experiments:
# [1] = system: advanced gastrointestinal cancer; conditions: cited from earlier work
# [2] = eight patients with measurable disease, 5-day courses at dose levels associated with toxicity; cited from earlier work
# [3] = system: advanced malignant melanoma; conditions: fifteen patients, 90-360 mg/m^2 repeated every 2 weeks; cited from earlier work
# [4] = cited from earlier work; for Non-Hematologic Toxicity No. of Patients With: Cystitis / Non-Hematologic Toxicity No. of Patients With: Diarrhea: 5-day Course; for Number of Patients with Non-Hematologic Toxicity: Cystitis / Number of Patients with Non-Hematologic Toxicity: Diarrhea: Single-Dose Method
# [5] = system: panel of over 20 human cancer cell lines; assay: In vitro studies on a panel of human cancer cell lines; format: cell-based; conditions: compared with Topotecan or SN-38
# human plasma proteins = assay: Percent of free camptothecin analogs in human plasma (dialysis, HPLC); format: in vitro ADME; conditions: 100 nM Compound Concentrations
# Protocol: Stocks of various camptothecin analogs were prepared in DMSO. […] Optimum HPLC detection conditions for each camptothecin analog were developed using traditional HPLC methods. Table VIII. Percent of Free Camptothecin Analogs in Human Plasma (100 nM Compound Concentrations)
# [6] = 5-Day Course (27 Patients Total), 4 wks
# [7] = 5-Day Course (27 Patients Total), 8 wks
# [8] = 5-Day Course (27 Patients Total), 12 wks
# [9] = Single-Dose Method (34 Patients Total), 3 wks
# [10] = Single-Dose Method (34 Patients Total), 6 wks
# [11] = Single-Dose Method (34 Patients Total), 9 wks
# [12] = Single-Dose Method (34 Patients Total), 12 wks
# [13] = 15 mg/m^2 X 5, 9 patients treated
# [14] = 17 mg/m^2 X 5, 5 patients treated
# [15] = 20 mg/m^2 X 5, 10 patients treated
structure (smiles),measurement,setting,value
CC[C@@]1(O)C(=O)OCc2c1cc1n(c2=O)Cc2cc3ccccc3nc2-1 [CPT sodium],Objective Results: Improved,[1]; [6],1
same,Objective Results: Stable,[1]; [6],12
same,Objective Results: Worse,[1]; [6],14
same,Objective Results: Stable,[1]; [7],7
same,Objective Results: Worse,[1]; [7],20
same,Objective Results: Stable,[1]; [8],6
same,Objective Results: Worse,[1]; [8],21
same,Objective Results: Improved,"[1]; Single-Dose Method (34 Patients Total), 3 wks after start of therapy",4
same,Objective Results: Stable,[1]; [9],17
same,Objective Results: Worse,[1]; [9],13
same,Objective Results: Improved,[1]; [10],2
same,Objective Results: Stable,[1]; [10],11
same,Objective Results: Worse,[1]; [10],21
same,Objective Results: Improved,[1]; [11],2
same,Objective Results: Stable,[1]; [11],8
same,Objective Results: Worse,[1]; [11],24
same,Objective Results: Stable,[1]; [12],6
same,Objective Results: Worse,[1]; [12],28
same,patients with partial objective improvement,"[1]; after 2 months (8 or 9 weeks), of 61 patients",two
same,patients showing improvement,"[1]; at 3 months, of 61 patients",none
same,patients showing a 25%-50% response,"[1]; at 3 wks, only","*A total of 3 patients showed a 25%-50% response at 3 wks, only."
same,clinical benefit,[2],No clinical benefit
same,myelosuppression,[3],11 patients
same,patients with a 50% or greater decrease in tumor diameter,[3],None
same,Cystitis,[4]; 5-Day Course (P<0.05),48 (P<0.05) % of 27 Patients
same,Non-Hematologic Toxicity No. of Patients With: Cystitis,"[4]; 11 mg/m^2 X 5, 2 patients treated",1
same,Non-Hematologic Toxicity No. of Patients With: Cystitis,[4]; [13],4
same,Non-Hematologic Toxicity No. of Patients With: Diarrhea,[4]; [13],1
same,Non-Hematologic Toxicity No. of Patients With: Cystitis,[4]; [14],2
same,Non-Hematologic Toxicity No. of Patients With: Diarrhea,[4]; [14],4
same,Non-Hematologic Toxicity No. of Patients With: Cystitis,[4]; [15],6
same,Non-Hematologic Toxicity No. of Patients With: Diarrhea,[4]; [15],4
same,Non-Hematologic Toxicity No. of Patients With: Diarrhea,"[4]; 22 mg/m^2 X 5, 1 patient treated",1
same,Cystitis,[4]; Single Dose,24 % of 34 Patients
same,Number of Patients with Non-Hematologic Toxicity: Cystitis,"[4]; 100 mg/m^2, 6 patients treated",2
same,Number of Patients with Non-Hematologic Toxicity: Cystitis,"[4]; 110 mg/m^2, 2 patients treated",1
same,Number of Patients with Non-Hematologic Toxicity: Diarrhea,"[4]; 110 mg/m^2, 2 patients treated",1
same,Number of Patients with Non-Hematologic Toxicity: Cystitis,"[4]; 120 mg/m^2, 7 patients treated",2
same,Number of Patients with Non-Hematologic Toxicity: Diarrhea,"[4]; 120 mg/m^2, 7 patients treated",4
same,Number of Patients with Non-Hematologic Toxicity: Cystitis,"[4]; 180 mg/m^2, 9 patients treated",3
same,Number of Patients with Non-Hematologic Toxicity: Diarrhea,"[4]; 180 mg/m^2, 9 patients treated",2
"CC[C@@]1(O)C(=O)OCc2c1cc1n(c2=O)Cc2c-1nc1ccccc1c2CC[Si](C)(C)C [Karenitecin (BNP1350), (4S)-4-ethyl-4-hydroxy-11-[2-(trimethylsilyl)ethyl]-1H-pyrano[3':4':6,7]indolizino[1,2-b]quinoline-3,14(4H,12H)-dione]",antitumor potency,[5],significantly more potent
same,Percent of Free CPTs,human plasma proteins,1%
